Assay [1] addresses T1, human α2β3γ2 GABAA receptor (Homo sapiens, UniProt P18507+P47869).
T1 construct: expressed in transfected cells; host or cells: Xenopus laevis oocytes injected with capped cRNA (α:β:γ 1:1:1)
Kind of assay: Two-electrode voltage-clamp in Xenopus oocytes, potentiation of GABA EC10 current, GABAA2. Type of assay: cell-based. Particulars: percentage potentiation of GABA EC10 current divided by that of diazepam control. The procedure: (§1) GABAA receptors were heterologously expressed in Xenopus oocytes by injecting cRNA corresponding to human α1, α2, α3, α5, β2, β3 and γ2 subunits of the GABAA receptor genes. The specific subunit combinations (subtypes) were as follows: α1β2γ2, α2β3γ2, α3β3γ2, and α5β3γ2. The EC10 of GABA was approximated for each cell. Stability of GABA-mediated (EC10) current was established. Modulatory effect of test compound was determined and compared across subtypes. […] Thus, the assay can characterize modulatory effects and determine subtype selectivity of test compounds on major subtypes of GABAA receptors.
(§2) Surgically removed ovarian lobes were teased out in OR2 solution (82 NaCl, 2.5 KCl, 5 HEPES, 1.5 NaH2PO4, 1 MgCl2, 0.1 EDTA, in mM, pH 7.4). The oocytes were defolliculated by incubation in 25 mL OR2 containing 0.2% collagenase 1A (SIGMA) two times for about 60 minutes on a platform shaker and stored in Leibovitz's L-15 medium. Oocytes were injected the following day in 0.5× Leibovitz's L-15 medium containing […] gentamycin, 10 units/ml penicillin, and […] streptomycin.
(§3) Capped cRNAs from the linearized vectors containing human α1, β2 and γ2 subunits of the GABAA receptor genes were mixed in ratio of 1:1:30. Oocytes were injected with 25-50 nL of mixed RNA with an appx molar ratio for α1, β2, and γ2 as 1:1:10. Oocyte recordings were done 2-10 days after injection. The same methods apply to subtypes derived from α2β2γ2, α3β3γ2, and α5β3γ2, except for 1:1:1 ratio was used for α, β, and γ subunits.
(§4) All measurements were done in a medium containing ND-96 (96 NaCl, 2 KCl, 1.8 CaCl2.2H2O, 1 MgCl2.6H2O, 5 HEPES, in mM, pH 7.5). Two-electrode voltage-clamp recording was carried out using OpusXpress amplifier (Axon Instruments, Foster City, Calif.), which allows simultaneous recording from 8 oocytes. Oocytes were impaled with two electrodes of 1-2 MΩ tip resistance when filled with 3M KCl. Recordings were begun when membrane potential became stable at potentials negative to −50-−60 mV. Membrane potential was held at −60 mV. […] The concentration of GABA corresponded to the EC10 value calculated for each oocyte. The modulator pulses started 30 s before the GABA pulse so as to allow preincubation with the modulator. A set of 3 pulses with just GABA without modulator was given prior to the modulator-containing pulses to define the baseline GABA response. Two oocytes per each experiment were dedicated to observe the effect of diazepam on GABA response to ensure the presence of γ2 subunit in the GABAA pentameric complex, which imparts diazepam sensitivity to the complex.
(§5) Current amplitude (i) was measured from baseline to peak using Clampfit (Axon Inst., Foster City, Calif.). Potentiation was calculated as percent change from the baseline GABA current flux 100×(imod/icontrol)−1) where imod=current mediated by modulator+GABA and icontrol=current mediated by GABA alone. […] Similarly, a value of −50% potentiation means the presence of modulator caused a 50% decrease in the control current. Various other data shown here were fitted and plotted using GraphPad Prism (GraphPad Software, Inc. San Diego, Calif.). The percentage potentiation was converted to relative potentiation by dividing it with percentage potentiation value obtained from the same assay with diazepam as a control.
(In two-electrode clamp one electrode senses voltage and the other passes current.)

The target of assay [2] is T2, human α1β2γ2 GABAA receptor (Homo sapiens, UniProt P14867+P18507).
T2 construct: expressed in transfected cells; host or cells: Xenopus laevis oocytes injected with capped cRNA
T2 sequence (P14867 28-456): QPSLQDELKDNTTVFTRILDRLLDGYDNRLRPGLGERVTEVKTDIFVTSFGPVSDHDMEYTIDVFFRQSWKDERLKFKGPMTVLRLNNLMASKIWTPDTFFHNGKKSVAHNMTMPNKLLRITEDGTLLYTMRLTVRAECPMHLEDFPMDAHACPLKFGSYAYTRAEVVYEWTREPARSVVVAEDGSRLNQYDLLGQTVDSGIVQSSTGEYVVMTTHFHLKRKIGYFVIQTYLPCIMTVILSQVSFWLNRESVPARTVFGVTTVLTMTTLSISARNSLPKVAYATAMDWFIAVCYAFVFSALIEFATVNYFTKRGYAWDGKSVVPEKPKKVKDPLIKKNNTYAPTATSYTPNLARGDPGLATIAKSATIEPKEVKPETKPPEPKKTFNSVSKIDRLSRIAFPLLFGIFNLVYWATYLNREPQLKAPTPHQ
T2 sequence (P47870 25-512 partner limits assumed): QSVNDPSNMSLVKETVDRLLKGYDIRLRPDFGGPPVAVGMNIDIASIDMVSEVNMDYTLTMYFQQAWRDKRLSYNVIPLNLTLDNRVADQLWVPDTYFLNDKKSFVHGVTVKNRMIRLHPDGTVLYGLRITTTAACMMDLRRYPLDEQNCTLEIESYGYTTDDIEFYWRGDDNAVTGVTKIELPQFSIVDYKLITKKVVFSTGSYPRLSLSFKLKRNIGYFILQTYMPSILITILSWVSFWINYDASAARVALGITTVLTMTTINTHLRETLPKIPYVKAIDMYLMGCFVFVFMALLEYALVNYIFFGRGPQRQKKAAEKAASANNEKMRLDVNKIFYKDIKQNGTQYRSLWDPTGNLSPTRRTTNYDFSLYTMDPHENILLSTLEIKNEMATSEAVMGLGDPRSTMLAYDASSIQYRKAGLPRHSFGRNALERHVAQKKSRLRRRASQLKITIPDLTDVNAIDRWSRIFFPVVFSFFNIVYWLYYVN
T2 sequence (P18507 40-475): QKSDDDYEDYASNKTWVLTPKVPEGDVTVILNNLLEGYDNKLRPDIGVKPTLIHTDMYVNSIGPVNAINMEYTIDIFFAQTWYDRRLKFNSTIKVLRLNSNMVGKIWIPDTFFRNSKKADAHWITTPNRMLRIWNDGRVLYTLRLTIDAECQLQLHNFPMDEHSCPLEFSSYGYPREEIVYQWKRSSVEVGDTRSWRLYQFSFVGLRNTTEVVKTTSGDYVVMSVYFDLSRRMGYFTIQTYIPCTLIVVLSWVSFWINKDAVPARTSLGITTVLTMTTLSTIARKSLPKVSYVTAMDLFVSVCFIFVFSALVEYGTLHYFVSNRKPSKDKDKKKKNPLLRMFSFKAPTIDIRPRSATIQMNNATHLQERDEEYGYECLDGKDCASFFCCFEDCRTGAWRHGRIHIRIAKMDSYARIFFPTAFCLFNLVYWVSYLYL
Kind of assay: Two-electrode voltage-clamp in Xenopus oocytes, potentiation of GABA EC10 current, GABAA1. It counts as cell-based. To be noted: percentage potentiation of GABA EC10 current divided by that of diazepam control. The protocol: as §1, §2, §3, §4, §5

Assay [3] addresses MT1 Receptor (Homo sapiens, UniProt P48039). Kind of assay: MT1 Receptor Binding.
The target in assay [4] is human Melatonin receptor 1 (MT1) (Homo sapiens, UniProt P48039). Nature of the assay: MT1 GTPγ35S-SPA Assay (Method II). Particulars: compound used for normalization.
Sequence of human Melatonin receptor 1 (MT1) (P48039 whole entry): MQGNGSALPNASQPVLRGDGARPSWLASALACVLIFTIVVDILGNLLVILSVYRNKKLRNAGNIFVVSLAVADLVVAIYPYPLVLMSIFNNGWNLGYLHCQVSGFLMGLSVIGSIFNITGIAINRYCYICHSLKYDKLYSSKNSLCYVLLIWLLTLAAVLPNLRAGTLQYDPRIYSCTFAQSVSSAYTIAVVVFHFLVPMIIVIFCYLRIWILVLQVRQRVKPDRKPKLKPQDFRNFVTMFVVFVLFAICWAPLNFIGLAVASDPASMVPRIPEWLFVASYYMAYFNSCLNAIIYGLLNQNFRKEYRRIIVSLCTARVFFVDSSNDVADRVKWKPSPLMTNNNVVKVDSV
Procedure: Solid compounds were solubilized at 10 mM in DMSO; then 1:3 further diluted in DMSO in 96-well U-bottom plates using PlateMate on the assay day. 2 μl of diluted compounds were transferred to Opti-assay-plates.
The cell pellets were homogenized using Polytron; and the cell membranes were prepared fro GTPγS assay.
The cell pellets were homogenized with Polytron in ice-cold buffer: 20 mM HEPES, 3 mM MgCl2, 1 mM EGTA, pH7.4. (Freshly add protease inhibitor cocktail tables from Roche). The samples were centrifuged at 18,500 rpm for 30 mins at 4° C. in Sorvall SS-34 rotor. The membrane pellets were collected and washed with the ice-cold buffer. The samples were centrifuged at 18,500 rpm for 30 mins at 4° C. again. The membranes were resuspended in the ice-cold buffer with protease inhibitors. The protein concentration of the membrane was determined. The membranes were aliquoted and stored at −80° C.
Human MT1/HEK293 F membrane (10 μg/well) was mixed with WGA-SPA beads (300 μg/well) and GDP (10 μM) in certain volume of Lazareno assay buffer (20 mM HEPES, 100 mM NaCl, 10 mM MgCl2, pH7.4). […] The assay plates were measured in TopCount to capture the data within 4 hours. […]
Compounds were evaluated for their agonist potency (EC50) and efficacy (Emax). […] Compound's % activity was calculated according to the 100% and 0% activities defined on the same plate as the sample data. […]

Data on 26 compounds can be found in patent US20110144331A1, “Cinnoline Compounds for the Treatment of Anxiety, Cognitive and Mood Disorders” (AstraZeneca AB, priority 2005, published 2011).

Each structure is given as a SMILES string.

Broadly, the inhibition is how much of the control response was suppressed. Low values mean little suppression, high ones strong suppression.

T1 sequence (P47869 29-451): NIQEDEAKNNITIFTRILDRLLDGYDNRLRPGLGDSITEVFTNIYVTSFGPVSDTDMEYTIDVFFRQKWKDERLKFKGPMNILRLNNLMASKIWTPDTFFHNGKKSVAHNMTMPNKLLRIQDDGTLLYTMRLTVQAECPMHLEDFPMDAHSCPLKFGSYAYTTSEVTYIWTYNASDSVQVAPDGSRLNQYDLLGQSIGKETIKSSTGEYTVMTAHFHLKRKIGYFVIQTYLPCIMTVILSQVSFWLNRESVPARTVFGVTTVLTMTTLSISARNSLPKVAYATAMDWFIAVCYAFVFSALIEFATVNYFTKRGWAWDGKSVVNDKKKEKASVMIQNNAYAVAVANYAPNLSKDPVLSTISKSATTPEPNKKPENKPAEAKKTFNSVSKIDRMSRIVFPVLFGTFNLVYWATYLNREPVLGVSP
T1 sequence (P18507 40-475): as the sequence (P18507 40-475) above
T1 sequence (P28472 26-473 partner): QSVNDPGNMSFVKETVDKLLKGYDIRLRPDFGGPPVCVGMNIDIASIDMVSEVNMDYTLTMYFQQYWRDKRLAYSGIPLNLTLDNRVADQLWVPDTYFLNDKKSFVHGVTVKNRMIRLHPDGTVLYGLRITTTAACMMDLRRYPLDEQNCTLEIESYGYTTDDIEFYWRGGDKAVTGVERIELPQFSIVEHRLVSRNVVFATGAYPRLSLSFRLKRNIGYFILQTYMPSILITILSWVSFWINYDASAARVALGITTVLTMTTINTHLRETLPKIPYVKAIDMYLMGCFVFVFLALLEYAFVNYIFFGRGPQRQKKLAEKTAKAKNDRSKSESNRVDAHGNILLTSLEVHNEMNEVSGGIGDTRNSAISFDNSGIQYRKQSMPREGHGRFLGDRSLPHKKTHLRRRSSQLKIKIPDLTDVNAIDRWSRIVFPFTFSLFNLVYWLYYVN
Sequence of MT1 Receptor (P48039 whole entry): as the sequence (P48039 whole entry) above

On to `CCCNC(=O)c1nnc2c(-c3cnc(OC)nc3OC)c(F)ccc2c1N`, for which, in assay [1], the “Relative Potentiation for GABAA2” value turned out to be 0.39. Besides, the “Relative Potentiation for GABAA1” value in assay [2] was 0.12.
`CCCNC(=O)c1nnc2c(-c3cc(C)ccc3OC)c(F)ccc2c1N`: the “Relative Potentiation for GABAA2” value in assay [1] amounted to 0.37. Also, the “Relative Potentiation for GABAA1” value in assay [2] is reported as 0.23.
`CCCNC(=O)c1nnc2c(-c3cccc(OC)c3F)c(F)ccc2c1N`: the “Relative Potentiation for GABAA2” value in assay [1] stood at 0.23. Besides, the “Relative Potentiation for GABAA1” value in assay [2] stood at 0.05.
As to `CCCNC(=O)c1nnc2c(-c3cc(F)ccc3OC)c(F)ccc2c1N`, the “Relative Potentiation for GABAA2” value in assay [1] amounted to 0.22. Also, in assay [2], the “Relative Potentiation for GABAA1” value was 0.085.
In the case of `CCCNC(=O)c1nnc2c(-c3cc(F)ccc3F)cccc2c1N`, in assay [1], the “Relative Potentiation for GABAA2” value is on record as 0.29. Besides, the “Relative Potentiation for GABAA1” value in assay [2] is recorded as −0.078.
On to `CCCNC(=O)c1nnc2c(-c3ccccc3)c(F)ccc2c1N`, for which the “Relative Potentiation for GABAA2” value in assay [1] worked out at 0.02. For the same compound, the “Relative Potentiation for GABAA1” value in assay [2] is −0.093.
Taken in the same sequence, the figures for `CCCNC(=O)c1nnc2c(-c3cc(Cl)ccc3OC)cccc2c1N` were 0.4 and 0.38.
On to `CCCNC(=O)c1nnc2c(-c3cccnc3F)cccc2c1N`, for which the “Relative Potentiation for GABAA2” value in assay [1] is recorded as 0.17. In addition, the “Relative Potentiation for GABAA1” value in assay [2] is given as −0.083.
The corresponding values for `CCCNC(=O)c1nnc2c(-c3cccc(C#N)c3)cccc2c1N` are 0.31 and 0.088.
On to `CCCNC(=O)c1nnc2c(-c3cc(OC)ccc3Cl)c(F)ccc2c1N`, for which the “Relative Potentiation for GABAA2” value in assay [1] is recorded as 0.19. Further, in assay [2], the “Relative Potentiation for GABAA1” value is given as 0.14.
As for `CCCNC(=O)c1nnc2c(-c3cc(C)ccc3C)c(F)ccc2c1N`, the “Relative Potentiation for GABAA2” value in assay [1] is on record as 0.28. For the same compound, in assay [2], the “Relative Potentiation for GABAA1” value is 0.21.
Take `CCCNC(=O)c1nnc2c(-c3cc(C(F)(F)F)ccc3Cl)cccc2c1N`: in assay [1], the “Relative Potentiation for GABAA2” value is 0.59. In addition, in assay [2], the “Relative Potentiation for GABAA1” value amounted to 0.47.
Taken in the same sequence, the figures for `CCCNC(=O)c1nnc2c(-c3cc(F)c(OC)cc3F)cccc2c1N` were 0.21 and 0.016.
Taken in the same sequence, the figures for `CCCNC(=O)c1nnc2c(-c3ccncc3)cccc2c1N` were 0.1 and −0.038.
Taken in the same sequence, the figures for `CCCNC(=O)c1nnc2c(-c3ccc(C)nc3F)cccc2c1N` were 0.27 and 0.053.
As to `CCCNC(=O)c1nnc2c(-c3cnccc3C)cccc2c1N`, the “Relative Potentiation for GABAA2” value in assay [1] is recorded as 0.11. Moreover, in assay [2], the “Relative Potentiation for GABAA1” value came out at 0.083.
The corresponding values for `CCCNC(=O)c1nnc2c(-c3ccc(F)cc3F)cccc2c1N` are 0.12 and −0.088.
Taken in the same sequence, the figures for `CCCNC(=O)c1nnc2c(-c3cc(OC)ccc3F)cccc2c1N` were 0.32 and 0.26.
Taken in the same sequence, the figures for `CCCNC(=O)c1nnc2c(-c3cccc(Cl)c3Cl)cccc2c1N` were 0.053 and 0.067.
On to `CCCCNC(=O)c1nnc2c(-c3cnccc3OC)cccc2c1N`, for which the “Relative Potentiation for GABAA2” value in assay [1] stood at 0.52. Besides, in assay [2], the “Relative Potentiation for GABAA1” value is 0.2.
In the case of `CCCNC(=O)c1nnc2c(-c3cccnc3OC)cccc2c1N`, the “Relative Potentiation for GABAA2” value in assay [1] is 0.097. Moreover, in assay [2], the “Relative Potentiation for GABAA1” value came out at 0.2.
For `CCCNC(=O)c1nnc2c(-c3cnccc3OC)cccc2c1N`, in assay [3], at 1 µM the inhibition was 82%.
In turn, `COc1ccc2[nH]c(I)c(CCNC(C)=O)c2c1` [2-Iodomelatonin] registered an EC100 concentration in assay [4] of 3 nM.
Regarding `CCCNC(=O)c1nnc2c(-c3ccc4ccccc4c3)cccc2c1N` [drawing 381], the “Relative Potentiation for GABAA2” value in assay [1] was 0.09. In assay [2], the “Relative Potentiation for GABAA1” value was 0.22.
Turning to `CCCNC(=O)c1nnc2c(-c3c(Cl)cccc3OC)cccc2c1N` [drawing 410], the “Relative Potentiation for GABAA2” value in assay [1] amounted to 0.119. Further, the “Relative Potentiation for GABAA1” value in assay [2] is reported as −0.040.
As to `CCCNC(=O)c1nnc2c(-c3c(F)cccc3OC)cccc2c1N` [drawing 423], testing at 1 µM in assay [3] gave an inhibition of 89%.
